Results: patent publication US20200397796A1, “METHODS OF TREATMENT OF CANCER COMPRISING CHK1 INHIBITORS” (SIERRA ONCOLOGY, INC., priority 2018, published 2020)

What was measured:
[1] = molecular target: CYP 2C19 (Homo sapiens, UniProt P33261); assay: CYP inhibition, 2C19; format: in vitro ADME; conditions: highest concentration investigated
[2] = Plasma protein binding, ultracentrifugation, monkey; format: in vitro ADME; conditions: for Percentage Bound / Percentage Free: Monkey plasma
Procedure: (§1) The PK of SRA737 have been determined in the mouse, rat, dog and monkey following oral and IV administration (Table 3). […] An acceptable terminal elimination t1/2 was also observed in each species. […] The plasma protein binding of SRA737 at 1 and 10 μM was examined in mouse, minipig, monkey and human plasma using ultracentrifugation and in dog plasma (10 μM) using rapid equilibrium dialysis.

[3] = GLP 28-day repeat oral dose toxicity and toxicokinetics, monkey; format: in vivo; conditions: for AUC(0-t) / Cmax / half-life: po, daily dosing for 28 days
Text: Reference source not found.6.

[4] = Single dose PK, rat; format: in vivo
Procedure: as §1

[5] = Plasma protein binding, ultracentrifugation, human; format: in vitro ADME; conditions: for Percentage Bound / Percentage Free: Human plasma
Procedure: as §1

[6] = molecular target: CYP 2C9 (Homo sapiens, UniProt P11712); assay: CYP inhibition, 2C9; format: in vitro ADME; conditions: highest concentration investigated
Sequence of CYP 2C9 (P11712 whole entry): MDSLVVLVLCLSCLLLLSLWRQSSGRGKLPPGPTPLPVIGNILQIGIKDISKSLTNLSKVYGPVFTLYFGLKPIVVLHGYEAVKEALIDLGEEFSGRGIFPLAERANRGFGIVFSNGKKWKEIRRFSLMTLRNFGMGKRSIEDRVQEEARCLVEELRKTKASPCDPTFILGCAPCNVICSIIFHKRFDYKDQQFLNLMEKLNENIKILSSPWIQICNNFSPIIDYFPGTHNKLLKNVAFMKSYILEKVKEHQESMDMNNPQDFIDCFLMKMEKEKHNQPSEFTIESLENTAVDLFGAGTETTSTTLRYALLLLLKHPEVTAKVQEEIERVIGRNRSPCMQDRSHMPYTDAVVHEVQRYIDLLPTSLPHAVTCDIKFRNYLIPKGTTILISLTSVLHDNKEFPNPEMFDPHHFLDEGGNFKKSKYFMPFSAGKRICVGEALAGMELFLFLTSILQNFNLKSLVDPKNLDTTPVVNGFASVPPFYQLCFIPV

[7] = molecular target: CYP 2A6 (Homo sapiens, UniProt P11509); assay: CYP inhibition, 2A6; format: in vitro ADME; conditions: highest concentration investigated
Sequence of CYP 2A6 (P11509 whole entry): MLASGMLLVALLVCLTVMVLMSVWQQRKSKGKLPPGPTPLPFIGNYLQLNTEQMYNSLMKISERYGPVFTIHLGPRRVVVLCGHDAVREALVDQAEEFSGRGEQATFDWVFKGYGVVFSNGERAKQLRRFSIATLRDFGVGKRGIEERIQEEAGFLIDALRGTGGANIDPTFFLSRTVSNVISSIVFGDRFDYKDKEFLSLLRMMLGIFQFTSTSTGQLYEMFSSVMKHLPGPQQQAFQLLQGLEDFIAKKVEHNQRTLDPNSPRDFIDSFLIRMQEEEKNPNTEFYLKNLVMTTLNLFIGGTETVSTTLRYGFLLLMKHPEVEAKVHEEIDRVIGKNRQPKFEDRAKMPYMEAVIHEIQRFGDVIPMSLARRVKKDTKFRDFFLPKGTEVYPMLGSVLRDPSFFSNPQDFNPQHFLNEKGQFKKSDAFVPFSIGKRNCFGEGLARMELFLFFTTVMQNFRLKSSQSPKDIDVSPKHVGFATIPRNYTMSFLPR

[8] = Caco-2 permeability assay; format: in vitro ADME; conditions: human
Procedure: (§2) The membrane permeability of SRA737 was assessed in the parallel artificial membrane permeability assay (PAMPA) and Caco-2 assays. Permeability in the PAMPA assay was classified as low.

[9] = tested on: human hepatocytes; assay: Stability and metabolites in cryopreserved hepatocytes, human; format: in vitro ADME
Procedure: The formation of SRA737-related metabolites was determined in cryopreserved hepatocytes from human, mouse, rat, dog, minipig and monkey samples after incubation with SRA737 at a nominal concentration of 10 μM for up to 4 hours. […] In the human hepatocyte preparation, approximately 67% of the parent remained after 4 hours of incubation compared to 75% and 7% in the rat and minipig preparations, respectively. Eight human SRA737 metabolites were observed. All SRA737 metabolites formed by human hepatocytes were also formed by monkey hepatocytes. Six metabolites were present at equal or greater abundance in the monkey.

[10] = tested on: Pan02; assay: In vivo efficacy, Pan02 syngeneic mouse model; conditions: in combination with a PD1/PD-L1 inhibitor; data not shown
Procedure: (§3) A program of in vivo efficacy studies was performed to assess the activity of SRA737 in combination with genotoxic chemotherapy and targeted agents, and as monotherapy.
(§4) One of these models also carried a MYCN amplification. A fourth HGSOC PDX model with partial resistance to PARPi was also sensitive to high dose SRA737 monotherapy.

[11] = Phase 1 clinical trial, SRA737 in combination with gemcitabine dose escalation; format: in vivo; conditions: human, plasma, oral, 20 mg, Day −7, mean, n = 8-10
[12] = Parallel artificial membrane permeability assay (PAMPA); format: in vitro ADME
Procedure: as §2

[13] = tested on: MDA-MB-231 model of TNBC; assay: In vivo efficacy, MDA-MB-231 model; design: species or system mouse; conditions: data not shown
Procedure: as §3, §4

[14] = Plasma protein binding, ultracentrifugation, minipig; format: in vitro ADME; conditions: for Percentage Bound / Percentage Free: Minipig plasma
Procedure: as §1

[15] = tested on: Eμ-Myc model of B-cell lymphoma; assay: In vivo efficacy, Eμ-Myc model; design: species or system mouse; conditions: data not shown
Procedure: as §3, §4

[16] = GLP 28-day repeat oral dose toxicity and toxicokinetics, mouse
[17] = molecular target: CYP 2D6 (Homo sapiens, UniProt P10635); assay: CYP inhibition, 2D6; format: in vitro ADME; conditions: highest concentration investigated
Sequence of CYP 2D6 (P10635 whole entry): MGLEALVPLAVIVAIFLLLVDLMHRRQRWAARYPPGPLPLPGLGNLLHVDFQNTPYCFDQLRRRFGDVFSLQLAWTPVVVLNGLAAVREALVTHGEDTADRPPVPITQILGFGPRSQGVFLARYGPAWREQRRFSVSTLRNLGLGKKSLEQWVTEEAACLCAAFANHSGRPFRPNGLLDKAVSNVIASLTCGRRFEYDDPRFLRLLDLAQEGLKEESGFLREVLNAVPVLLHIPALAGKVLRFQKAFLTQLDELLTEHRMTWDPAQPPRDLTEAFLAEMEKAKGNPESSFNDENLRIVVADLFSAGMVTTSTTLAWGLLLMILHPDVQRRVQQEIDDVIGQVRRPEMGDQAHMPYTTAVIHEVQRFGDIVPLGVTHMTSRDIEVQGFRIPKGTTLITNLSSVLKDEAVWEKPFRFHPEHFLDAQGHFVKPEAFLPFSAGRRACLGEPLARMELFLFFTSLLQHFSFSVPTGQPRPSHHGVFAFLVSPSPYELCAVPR

[18] = tested on: PDX model of TNBC; assay: In vivo efficacy, PDX model of TNBC; design: species or system mouse; conditions: with low-dose gemcitabine; data not shown
Procedure: as §3, §4

[19] = Plasma protein binding, rapid equilibrium dialysis, dog; format: in vitro ADME; conditions: 10 μM
Procedure: as §1

[20] = in vivo, Monkey Female, 2 mg/kg/day
[21] = in vivo, Monkey Female, 10 mg/kg/day
[22] = in vivo, Monkey Female, 20 mg/kg/day (NOAEL)
[23] = in vivo, Monkey Male, 2 mg/kg/day
[24] = in vivo, Monkey Male, 10 mg/kg/day
[25] = in vivo, Monkey Male, 20 mg/kg/day (NOAEL)
[26] = in vivo, Rat IV 5 mg/kg single dose
[27] = in vivo, Rat oral 10 mg/kg single dose
[28] = female, mouse, in vivo, po, 10 mg/kg/day
[29] = female, mouse, in vivo, po, 40 mg/kg/day
[30] = female, mouse, in vivo, po, 75 mg/kg/day
[31] = male, mouse, in vivo, po, 10 mg/kg/day
[32] = male, mouse, in vivo, po, 40 mg/kg/day
[33] = male, mouse, in vivo, po, 75 mg/kg/day

Sequence of CYP 2C19 (P33261 whole entry): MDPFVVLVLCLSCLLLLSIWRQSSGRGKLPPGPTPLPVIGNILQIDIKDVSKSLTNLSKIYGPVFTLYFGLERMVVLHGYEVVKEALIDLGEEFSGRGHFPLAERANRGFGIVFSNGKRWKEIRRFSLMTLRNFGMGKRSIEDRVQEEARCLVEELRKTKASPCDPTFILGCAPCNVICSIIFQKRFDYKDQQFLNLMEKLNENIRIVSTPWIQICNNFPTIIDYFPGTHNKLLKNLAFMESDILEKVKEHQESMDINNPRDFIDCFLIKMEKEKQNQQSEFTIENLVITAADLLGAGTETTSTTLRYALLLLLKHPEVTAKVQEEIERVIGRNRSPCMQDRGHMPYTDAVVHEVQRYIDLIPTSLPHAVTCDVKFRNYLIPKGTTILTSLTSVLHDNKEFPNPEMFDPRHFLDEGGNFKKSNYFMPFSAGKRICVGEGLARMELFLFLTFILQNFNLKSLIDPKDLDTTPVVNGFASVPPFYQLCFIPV

For `N#Cc1cnc(Nc2cc(NCC3CNCCO3)c(C(F)(F)F)cn2)cn1` (centres unmarked) [SRA737, 5-[[4-[[morpholin-2-yl]methylamino]-5-(trifluoromethyl)-2-pyridyl]amino]pyrazine-2-carbonitrile], the IC50 [1] was 10 to 50 µM, the “Percentage Bound” value ([2]; 1 μM) was 88.8% and the “Percentage Free” value ([2]; 1 μM) was 11.2%. The “Percentage Bound” value ([2]; 10 μM) was 85.8%, the “Percentage Free” value ([2]; 10 μM) was 14.2% and the fraction unbound ([2]; plasma, monkey, summary of 1 and 10 μM) was 0.13. It also gave an AUC(0-t) [3, 20] of 2580 ng·h/mL, a Cmax [3, 20] of 519 ng/mL and a half-life [3, 20] of 524 min. For the same molecule, the AUC(0-t) [3, 21] was 12900 ng·h/mL, the Cmax [3, 21] was 1870 ng/mL and the half-life [3, 21] was 395 min. The AUC(0-t) [3, 22] was 24200 ng·h/mL, the Cmax [3, 22] was 2320 ng/mL and the half-life [3, 22] was 360 min. The AUC(0-t) [3, 23] was 3240 ng·h/mL, the Cmax [3, 23] was 365 ng/mL and the half-life [3, 23] was 404 min. For the same molecule, the AUC(0-t) [3, 24] was 17900 ng·h/mL, the Cmax [3, 24] was 2070 ng/mL and the half-life [3, 24] was 500 min. The AUC(0-t) [3, 25] was 20700 ng·h/mL, the Cmax [3, 25] was 3170 ng/mL and the half-life [3, 25] was 410 min. For the same molecule, the NOAEL at 28 days ([3]; in vivo, monkey, 28-day repeat oral dose, highest dose tested) was 20 mg/kg/day, the NOAEL ([3]; monkey, 28-day repeat oral dose, highest dose tested) was 240 mg/m^2/day and the toxicological findings ([3]; pivotal monkey toxicity study) was “absence of toxicological findings”. The Foral ([4]; Rat oral 10 mg/kg single dose) was 42%, the AUC(0-t) [4, 26] was 1380 ng·h/mL and the half-life [4, 26] was 60 min. The AUC(0-t) [4, 27] was 1170 ng·h/mL, the Cmax [4, 27] was 190 ng/mL and the Tmax [4, 27] was 2 h. For the same molecule, the half-life [4, 27] was 276 min, the “Percentage Bound” value ([5]; 1 μM) was 87.7% and the “Percentage Free” value ([5]; 1 μM) was 12.4%. For the same molecule, the “Percentage Bound” value ([5]; 10 μM) was 87.2%, the “Percentage Free” value ([5]; 10 μM) was 12.8% and the fraction unbound ([5]; human, plasma, humans, summary of 1 and 10 μM) was roughly 0.13. It also gave an IC50 [6] of 10 to 50 µM, an IC50 [7] of 10 to 50 µM and a Papp at 10 μM [8] of 20.7 ± 9.1 ×10⁻⁶ cm/s. The efflux ratio at 10 μM ([8]; read-out: efflux ratio (A>B/B>A)) was 0.8, the human-specific metabolites ([9]; compared with mouse, rat, dog, minipig and monkey hepatocytes) was “No human-specific metabolites” and the “number of human SRA737 metabolites observed” value ([9]; human hepatocytes, 10 μM, up to 4 hours) was “Eight”. For the same molecule, the parent remained ([9]; human hepatocytes, 10 μM, after 4 hours of incubation) was “approximately 67%”, the antitumor activity [10] was “Significant antitumor activity” and the Cmax [11] was 31.3 ng/mL. The Tmax [11] was 1.9 h, the “permeability in the PAMPA assay” value [12] was “low” and the single agent efficacy [13] was “single agent efficacy”. For the same molecule, the “Percentage Bound” value ([14]; 1 μM) was 85.2%, the “Percentage Free” value ([14]; 1 μM) was 14.9% and the “Percentage Bound” value ([14]; 10 μM) was 75.5%. The “Percentage Free” value ([14]; 10 μM) was 24.5%, the fraction unbound ([14]; plasma, minipig, summary of 1 and 10 μM) was roughly 0.2 and the single agent efficacy [15] was “single agent efficacy”. For the same molecule, the AUC(0-t) [16, 28] was 3610 ng·h/mL, the Cmax [16, 28] was 918 ng/mL and the half-life [16, 28] was 311 min. It also gave an AUC(0-t) [16, 29] of 24800 ng·h/mL, a Cmax at 28 days [16, 29] of 2350 ng/mL and a half-life [16, 29] of 305 min. For the same molecule, the AUC(0-t) [16, 30] was 45500 ng·h/mL, the Cmax [16, 30] was 4030 ng/mL and the half-life [16, 30] was 418 min. The AUC(0-t) [16, 31] was 4410 ng·h/mL, the Cmax [16, 31] was 903 ng/mL and the AUC(0-t) [16, 32] was 34300 ng·h/mL. For the same molecule, the Cmax at 28 days [16, 32] was 3250 ng/mL, the half-life [16, 32] was 373 min and the AUC(0-t) [16, 33] was 68600 ng·h/mL. For the same molecule, the Cmax [16, 33] was 5450 ng/mL, the half-life [16, 33] was 502 min and the toxicological findings ([16]; mouse pivotal study, dose-dependent, reversible on cessation) was “bone marrow toxicity”. For the same molecule, the MTD at 28 days ([16]; mouse, in vivo, po) was 75 mg/kg/day, the IC50 [17] was 10 to 50 µM and the synergy [18] was “Synergy”. The “Percentage Bound” value [19] was 68.8% and the “Percentage Free” value [19] was 31.2%.
